{"source": "patent US7667054B2", "about": "“Cytotoxic agents comprising new taxanes” (priority 2004, dated 2010)", "key": {"A549": {"test_system": "A549", "experiment": "activity of the taxoids on A549 (procedure of Riou, Naudin and Lavelle)", "type": "cell-based", "conditions": "Homo sapiens, A549, read-out: A549", "description": "(§1) The activity of the compounds of the present invention were determined following the proceeding described by Riou, Naudin and Lavelle in Biochemical and Biophysical Research Communications; Vol. 187, No1, 1992, p 164-170."}, "MCF7": {"test_system": "MCF7", "experiment": "activity of the taxoids on MCF7 (procedure of Riou, Naudin and Lavelle)", "type": "cell-based", "conditions": "Homo sapiens, MCF7, read-out: MCF7", "description": "as §1"}, "A-375 cells": {"test_system": "A-375 cells", "experiment": "in vitro potency of huC242-Taxoid conjugate and free taxoid, WST-8 assay, antigen negative cells", "type": "cell-based, human", "conditions": "for IC50: human melanoma A-375 cells (antigen negative), 4 days, WST-8", "description": "(§2) Samples of free taxoid or huC242-Taxoid conjugate were added to a 96-well flat bottomed tissue culture plate and titrated using serial dilutions ranging from 1×10^−12 M to 3×10^−7 M. Human colon tumor cells, COLO 205, or human melanoma cells, A-375, were added to the wells in such a way that there were triplicate samples for each drug concentration for each cell line. The plates were incubated at 37° C. in an atmosphere of 5% CO2 for 4 days.\n(§3) At the end of the incubation period, 20 μl of the tetrazolium reagent WST-8 (2-(2-methoxy-nitrophenyl)-3-(4-nitrophenyl)-5-(2,4-disulfophenyl)-2-tetrazolium, monosodium salt]) was added to each well, and the plates were returned to the incubator for 2 hours. The absorbance in each well of the plates was then measured using the Molecular Devices plate reader at 450 nm. Surviving fraction of cells at each concentration of taxoid or conjugate are plotted in FIGS. 2a, b."}, "COLO 205 cells": {"test_system": "COLO 205 cells", "experiment": "in vitro potency of huC242-Taxoid conjugate and free taxoid, WST-8 assay, antigen positive cells", "type": "cell-based", "conditions": "human colon cancer COLO 205 cells (antigen positive), 4 days", "description": "as §2, §3"}}, "data": [{"molecule": "COc1ccc(OC)c(C(=O)O[C@H]2[C@@H]3[C@]4(OC(C)=O)CO[C@@H]4C[C@H]4O[C@@H]([C@H](OC(=O)N(C)C)C5=C(C)[C@@H](OC(=O)[C@H](O)[C@H](C=C(C)C)NC(=O)OC(C)(C)C)C[C@]2(O)C5(C)C)[C@@]34C)c1", "note": "[IGT-15-014]", "values": [{"measurement": "IC50", "setting": "A549", "value": 30, "unit": "pM"}, {"measurement": "IC50", "setting": "MCF7", "value": 24, "unit": "pM"}]}, {"molecule": "COc1ccc(OC)c(C(=O)O[C@H]2[C@@H]3[C@]4(OC(C)=O)CO[C@@H]4C[C@H]4O[C@@H]([C@H](OC(=O)NCC(C)(C)SSC)C5=C(C)[C@@H](OC(=O)[C@H](O)[C@@H](NC(=O)OC(C)(C)C)c6ccco6)C[C@]2(O)C5(C)C)[C@@]34C)c1", "note": "[IGT-15-075, 7α,9α-epoxy-3′-dephenyl-3′-(2-furyl)-2-debenzoyl-2-(2,5-dimethoxybenzoyl)-10-(N-2,2-dimethyl-2-methyidithio-ethylcarbamoyl)-docetaxel]", "values": [{"measurement": "IC50", "setting": "A-375 cells; 96 h", "value": "~100", "unit": "pM"}, {"measurement": "IC50", "setting": "COLO 205 cells; 96 h", "value": "~100", "unit": "pM"}]}, {"molecule": "huC242-taxoid (conjugate, chains of the INN, looked up, taxoid payload conjugate) VH: QVQLVQSGAEVKKPGETVKISCKASDYTFTYYGMNWVKQAPGQGLKWMGWIDTTTGEPTYAQKFQGRIAFSLETSASTAYLQIKSLKSEDTATYFCARRGPYNWYFDVWGQGTTVTVSS VL: DIVMTQSPLSVPVTPGEPVSISCRSSKSLLHSNGNTYLYWFLQRPGQSPQLLIYRMSNLVSGVPDRFSGSGSGTAFTLRISRVEAEDVGVYYCLQHLEYPFTFGPGTKLELK", "values": [{"measurement": "fold less sensitive, antigen negative cells vs COLO 205", "setting": "A-375 cells; A-375 versus COLO 205", "value": "about 150 fold"}, {"measurement": "IC50", "setting": "A-375 cells", "value": 12000, "unit": "pM"}, {"measurement": "IC50", "setting": "COLO 205 cells", "value": 80, "unit": "pM"}]}]}
